Measurements from US11014920B2, “Factor XIIa inhibitors” (Merck Sharp & Dohme Corp., priority 2016, dated 2021).

target: purified human Factor XIIa (Homo sapiens (Human), UniProt P00748); assay: Factor XIIa assay; type: biochemical; settings: substrate n-Acetyl-Lys-Pro-Arg-AFC 100 μM, pH 7.4, read-out: FXIIa IC50
Procedure: “FXIIa IC50(nm)” is Human Factor XIIa IC50 (nm).
The effectiveness of a compound of the present invention as an inhibitor of Coagulation Factor XIIa can be determined using a relevant purified serine protease, and an appropriate synthetic substrate. The rate of hydrolysis of the chromogenic or fluorogenic substrate by the relevant serine protease was measured both in the absence and presence of compounds of the present invention. Assays were conducted at room temperature or at 37° C. […] A decrease in the rate of fluorescence change in the presence of inhibitor is indicative of enzyme inhibition. Such methods are known to one skilled in the art. The results of this assay are expressed as the IC50, the inhibitor concentration causing a 50% decrease in Factor XIIa protease activity.
Factor XIIa activity determinations were made in 50 mM HEPES buffer containing 150 mM NaCl, 5 mM CaCl2, and 0.1% PEG 8000 (polyethylene glycol; JT Baker or Fisher Scientific) at pH 7.4. Determinations were made using purified human Factor XIIa at a final concentration of […] (Sekisui Diagnostics) and the synthetic substrate, n-Acetyl-Lys-Pro-Arg-AFC, TFA salt (Sigma # C6608) at a concentration of 100 μM.
Times required to achieve equilibration between enzyme and inhibitor were determined in control experiments. Initial velocities of product formation in the absence (Vo) or presence of inhibitor (Vi) were measured.

Sequence of purified human Factor XIIa (P00748 373-615): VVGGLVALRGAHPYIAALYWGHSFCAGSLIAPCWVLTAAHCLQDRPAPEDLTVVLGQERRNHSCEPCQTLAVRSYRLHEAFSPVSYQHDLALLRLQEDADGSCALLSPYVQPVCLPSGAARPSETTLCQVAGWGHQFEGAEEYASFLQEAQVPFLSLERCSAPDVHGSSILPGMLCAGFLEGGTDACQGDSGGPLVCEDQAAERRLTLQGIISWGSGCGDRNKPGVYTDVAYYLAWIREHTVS
Sequence of purified human Factor XIIa (P00748 20-372 partner): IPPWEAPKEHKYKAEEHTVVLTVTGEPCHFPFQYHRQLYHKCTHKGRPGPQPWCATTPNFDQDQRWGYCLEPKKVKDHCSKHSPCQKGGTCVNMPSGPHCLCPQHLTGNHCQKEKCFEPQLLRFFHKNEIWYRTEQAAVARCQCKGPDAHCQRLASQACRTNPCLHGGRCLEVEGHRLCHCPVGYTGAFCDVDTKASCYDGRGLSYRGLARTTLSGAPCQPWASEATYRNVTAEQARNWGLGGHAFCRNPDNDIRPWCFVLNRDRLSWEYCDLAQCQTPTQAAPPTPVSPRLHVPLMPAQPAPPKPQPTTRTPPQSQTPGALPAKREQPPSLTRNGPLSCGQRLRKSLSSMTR

Compound | IC50
Cc1cnc(C(=O)N[C@@H]2CCN(C(=O)[C@@H](CC3CCCCC3)NC3CCCCC3)C[C@@H]2C(=O)NCc2ccc3[nH]cc(Cl)c3c2)s1 [Compound 1, (3S,4R)-N-[(3-chloro-1H-indol-5-yl)methyl]-1-(N,3-dicyclohexyl-D-alanyl)-4-{[(5-methyl-1,3-thiazol-2-yl)carbonyl]amino}pi-peridine-3-carboxamide] | 49.2 nM
Cc1cnc(C(=O)NC2CCN(C(=O)[C@@H](CC3CCCCC3)NC3CCCCC3)CC2C(=O)NCc2ccc(CN)cc2)s1 (stereo partly drawn) [Compound 2, N-[4-(aminomethyl)benzyl]-1-(N,3-dicyclohexyl-D-alanyl)-4-{[(5-methyl-1,3-thiazol-2-yl)carbonyl]amino}pi-peridine-3-carboxamide] | 73.3 nM
Cc1cnc(C(=O)N[C@@H]2CCN(C(=O)[C@@H](CC3CCCCC3)NC3CCCCC3)C[C@@H]2C(=O)NCc2ccnc(N)c2)s1 [Compound 4, (3S,4R)-N-[(2-aminopyridin-4-yl)methyl]-1-(N,3-dicyclohexyl-D-alanyl)-4-{[(5-methyl-1,3-thiazol-2-yl)carbonyl]amino}pi-peridine-3-carboxamide] | 65.1 nM
NCc1ccc(CNC(=O)[C@H]2CN(C(=O)[C@@H](CC3CC3)NC3CCCCC3)CC[C@H]2NC(=O)N2CCC3(CC2)CC3)cc1 [Compound 12, N-[(3S,4R)-3-{[4-(amino-methyl)benzyl]carbamoyl}-1-(N-cyclohexyl-3-cyclopropyl-D-alanyl)piperidin-4-yl]-6-azaspiro[2.5]octane-6-carboxamide] | 41.7 nM
NCCCC[C@@H](NC1CCCCC1)C(=O)N1CC[C@@H](NC(=O)N2CCC3(CC2)CC3)[C@@H](C(=O)NCc2ccccc2)C1 [Compound 13, N-[(3S,4R)-3-(benzylcarbamoyl)-1-(N~2~-cyclohexyl-D-lysyl)piperidin-4-yl]-6-azaspiro[2.5]octane-6-carboxamide] | 98.3 nM
NCCCC[C@@H](NC1CCCCC1)C(=O)N1CC[C@@H](NC(=O)N2CCC3(CC2)CC3)[C@@H](C(=O)NCc2ccc(CN)cc2)C1 [Compound 14, N-[(3S,4R)-3-{[4-(amino-methyl)benzyl]carbamoyl}-1-(N~2~-cyclohexyl-D-lysyl)piperidin-4-yl]-6-azaspiro[2.5]octane-6-carboxamide] | 18.7 nM
Cc1csc(CNC(=O)[C@H]2CN(C(=O)[C@@H](CCCCN)NC3CCCCC3)CC[C@H]2NC(=O)N2CCC3(CC2)CC3)c1 [Compound 15, N-[(3S,4R)-1-(N~2~- cyclohexyl-D-lysyl)-3-{[(4-methylthiophen-2-yl)methyl]carbamoyl}pi-peridin-4-yl]-6-azaspiro[2.5]octane-6-carboxamide] | 60.2 nM
O=C(NCc1cccs1)[C@H]1CN(C(=O)[C@@H](CCCCN2CCCS2(=O)=O)NC2CCCCC2)CC[C@H]1NC(=O)N1CCC2(CC1)CC2 [Compound 17, N-{(3S,4R)-1-[N-cyclohexyl-6-(1,1-dioxidoisothiazolidin-2-yl)-D-norleucyl]-3-[(thiophen-2-ylmethyl)carbamoyl]pi-peridin-4-yl}-6-azaspiro[2.5]octane-6-carboxamide] | 11.5 nM
CS(=O)(=O)NCCCC[C@@H](NC1CCC2(CC1)CCN(Cc1ccccc1)C2)C(=O)N1CC[C@@H](NC(=O)N2CCC3(CC2)CC3)[C@@H](C(=O)NCc2cccs2)C1 (stereo partly drawn) [Compound 18, N-{(3S,4R)-1-[N~2~- (2-benzyl-2-azaspiro[4.5]dec-8-yl)-N~6~-(methylsulfonyl)-D-lysyl]-3-[(thiophen-2-ylmethyl)carbamoyl]pi-peridin-4-yl}-6-azaspiro[2.5]octane-6-carboxamide] | 29.2 nM
O=C(NCc1cccs1)[C@H]1CN(C(=O)[C@@H](CCCCNS(=O)(=O)C2CC2)NC2CCCCC2)CC[C@H]1NC(=O)N1CCC2(CC1)CC2 [Compound 19, N-{(3S,4R)-1-[N~2~- cyclohexyl-N~6~- (cyclopropylsulfonyl)-D-lysyl]-3-[(thiophen-2-ylmethyl)carbamoyl]pi-peridin-4-yl}-6-azaspiro[2.5]octane-6-carboxamide] | 43.1 nM
O=C(NCc1cccs1)[C@H]1CN(C(=O)[C@@H](CC2CCNCC2)NC2CCCCC2)CC[C@H]1NC(=O)N1CCC2(CC1)CC2 [Compound 20, N-{(3S,4R)-1-(N-cyclohexyl-3-piperidin-4-yl-D-alanyl)-3-[(thiophen-2-ylmethyl)carbamoyl]pi-peridin-4-yl}-6-azaspiro[2.5]octane-6-carboxamide] | 47.2 nM
CCS(=O)(=O)NCCCC[C@@H](NC1CCCCC1)C(=O)N1CC[C@@H](NC(=O)N2CCC3(CC2)CC3)[C@@H](C(=O)NCc2cccs2)C1 [Compound 21, N-{(3S,4R)-1-[N~2~- cyclohexyl-N~6~- (ethylsulfonyl)-D-lysyl]-3-[(thiophen-2-ylmethyl)carbamoyl]pi-peridin-4-yl}-6-azaspiro[2.5]octane-6-carboxamide] | 51.2 nM
O=C(NCc1cccs1)[C@H]1CN(C(=O)[C@@H](CCCCNCC(F)(F)F)NC2CCCCC2)CC[C@H]1NC(=O)N1CCC2(CC1)CC2 [Compound 22, N-{(3S,4R)-1-[N~2~- cyclohexyl-N~6~- (2,2,2-trifluoroethyl)-D-lysyl]-3-[(thiophen-2-ylmethyl)carbamoyl]pi-peridin-4-yl}-6-azaspiro[2.5]octane-6-carboxamide] | 46.5 nM
CS(=O)(=O)NCCCC[C@@H](NC1CCCCC1)C(=O)N1CC[C@@H](NC(=O)N2CCC3(CC2)CC3)[C@@H](C(=O)NCc2cccs2)C1 [Compound 23, N-{(3S,4R)-1-[N~2~- cyclohexyl-N~6~- (methylsulfonyl)-D-lysyl]-3-[(thiophen-2-ylmethyl)carbamoyl]pi-peridin-4-yl}-6-azaspiro[2.5]octane-6-carboxamide] | 52.4 nM
CC(=O)NCCCC[C@@H](NC1CCCCC1)C(=O)N1CC[C@@H](NC(=O)N2CCC3(CC2)CC3)[C@@H](C(=O)NCc2cccs2)C1 [Compound 24, N-{(3S,4R)-1-(N~6~- acetyl-N~2~- cyclohexyl-D-lysyl)-3-[(thiophen-2-ylmethyl)carbamoyl]pi-peridin-4-yl}-6-azaspiro[2.5]octane-6-carboxamide] | 108 nM

More lines, now with the values ahead:

IC50 | Compound
109 nM | Cc1cnc(C(=O)N[C@@H]2CCN(C(=O)[C@@H](CCCCN)NC3CCCCC3)C[C@@H]2C(=O)NCc2cccs2)s1 [Compound 3, (3S,4R)-1-(N~2~- cyclohexyl-D-lysyl)-4-{[(5-methyl-1,3-thiazol-2-yl)carbonyl]amino}-N-(thiophen-2-ylmethyl)piperidine-3-carboxamide]
71.6 nM | CN(C)CCCC[C@H](C(=O)N1CC[C@@H](NC(=O)c2ccc(F)c(F)c2)[C@@H](C(=O)NCc2cccs2)C1)N(C)C1CCCCC1 [Compound 5, (3S,4R)-1-(N~2~- cyclohexyl-N~2~,N~6~,N~6~- trimethyl-D-lysyl)-4-{[(3,4-difluoro-phenyl)carbonyl]amino}-N-(thiophen-2-ylmethyl)piperidine-3-carboxamide]
98.3 nM | CN(C)CCCC[C@H](C(=O)N1CC[C@@H](NC(=O)c2ccc(F)cc2)[C@@H](C(=O)NCc2cccs2)C1)N(C)C1CCCCC1 [Compound 6, (3S,4R)-1-(N~2~- cyclohexyl-N~2~,N~6~,N~6~- trimethyl-D-lysyl)-4-{[(4-fluoro-phenyl)carbonyl]amino}-N-(thiophen-2-ylmethyl)piperidine-3-carboxamide]
18.7 nM | CN(C)CCCC[C@H](C(=O)N1CC[C@@H](NC(=O)c2ccc(F)cc2F)[C@@H](C(=O)NCc2cccs2)C1)N(C)C1CCCCC1 [Compound 7, (3S,4R)-1-(N~2~- cyclohexyl-N~2~,N~6~,N~6~- trimethyl-D-lysyl)-4-{[(2,4-difluoro-phenyl)carbonyl]amino}-N-(thiophen-2-ylmethyl)piperidine-3-carboxamide]
60.2 nM | CN(C)CCCC[C@H](C(=O)N1CC[C@@H](NC(=O)c2ccccc2)[C@@H](C(=O)NCc2cccs2)C1)N(C)C1CCCCC1 [Compound 8, (3S,4R)-1-(N~2~- cyclohexyl-N~2~,N~6~,N~6~- trimethyl-D-lysyl)-4-[(phenylcarbonyl)amino]-N-(thiophen-2-ylmethyl)piperidine-3-carboxamide]
11.5 nM | CN(C)CCCC[C@H](C(=O)N1CC[C@@H](NC(=O)c2ccc(Cl)cc2)[C@@H](C(=O)NCc2cccs2)C1)N(C)C1CCCCC1 [Compound 9, (3S,4R)-4-{[(4-chloro-phenyl)carbonyl]amino}-1-(N~2~- cyclohexyl-N~2~,N~6~,N~6~- trimethyl-D-lysyl)-N-(thiophen-2-ylmethyl)piperidine-3-carboxamide]
29.2 nM | CN(C)CCCC[C@H](C(=O)N1CC[C@@H](NC(=O)c2cc(F)c(F)cc2F)[C@@H](C(=O)NCc2cccs2)C1)N(C)C1CCCCC1 [Compound 10, (3S,4R)-1-(N~2~- cyclohexyl-N~2~,N~6~,N~6~- trimethyl-D-lysyl)-N-(thiophen-2-ylmethyl)-4-{[(2,4,5-trifluoro-phenyl)carbonyl]amino}pi-peridine-3-carboxamide]
71.6 nM | NCCCC[C@@H](NC1CCCCC1)C(=O)N1CC[C@@H](NC(=O)N2CCC3(CC2)CC3)[C@@H](C(=O)NCc2cccs2)C1 [Compound 11, N-{(3S,4R)-1-(N~2~- cyclohexyl-D-lysyl)-3-[(thiophen-2-ylmethyl)carbamoyl]pi-peridin-4-yl}-6-azaspiro[2.5]octane-6-carboxamide]
